Consider 88 compounds from a melting point compilation (Tetko et al.; mined from patent text by program, amines drawn as free bases though some values may be those of a salt).

Regarding `CN(c1ccc2ccccc2c1)c1nc(=O)c2cccnc2s1`, the melting point is 230 to 232 °C.

Consider `COc1ccc2c(c1)c(Cc1nc(-c3ccc([N+](=O)[O-])cc3)cs1)c(C)n2Cc1ccc(Br)cc1`, for which the melting point was 205 to 207 °C.

As to `N#CNC(=Nc1ccccc1)NCCNCC(O)COc1ccccc1C#N` (stereo not drawn), the melting point is 146 to 147 °C.

Consider `O=C1CCCCN1CCC(=O)N1CCC(C2c3ncc(Br)cc3CCc3cc(Cl)cc(Br)c32)CC1` (single isomer, unassigned; (+)), for which the melting point was in the range of 138 to 139 °C.

Compound `Cc1c(SCCCSCc2ccncc2)ccnc1CNc1ncncc1Cl` registered a melting point of 148 to 149 °C.

As for `CC(C)(C)OC(=O)N1CCC(C(=O)c2ccccc2)CC1`, the melting point fell in the range of 91 to 93 °C.

The compound `CCCc1c2c(c([N+](=O)[O-])c3c(=O)cc(C(=O)OCC)oc13)CCCC2` registered a melting point of 140 to 142 °C.

Take `O=C(O)CC1(C(=O)O)CCSc2ccccc21` (stereo not drawn): the melting point was 168 to 170 °C.

Take `O=C(c1ccc(F)cc1)C1CCN(CCN(C(=O)c2ccc([N+](=O)[O-])cc2)c2ccccc2C(F)(F)F)CC1`: the melting point is 157 to 158 °C.

Compound `COc1ccc(C(c2ccccc2)(c2ccc(OC)cc2)C(F)(F)F)cc1` registered a melting point of 120 to 121 °C.

In turn, `Cc1oc(-c2cc3ccccc3o2)nc1COc1ccc(CCCC2OC(=O)NC2=O)cc1` (stereo not drawn) displayed a melting point of 165 to 166 °C.

Regarding `O=c1c2c(c3cccnc3n1-c1ccccc1)OCCCC2`, the melting point was 180 to 181 °C.

`CC(C)(C)OC(=O)N[C@H](Cc1ccc(C(F)(F)F)cc1)[C@@H](O)c1ccc(Cl)nc1` (racemic) showed a melting point of 157 to 158 °C.

With `O=C1CSc2c(ccc3ccccc23)N1`, the melting point lay within 211 to 212 °C.

`COC(=O)c1ccc(N2CCNCC2)cc1` came in with a melting point of 95 to 97 °C.

The compound `N#CCCNC(=O)c1cccc(-c2ccc3c(c2)C(c2cc(Cl)ccc2Cl)CC3)c1` (stereo not drawn) registered a melting point of 135 to 136 °C.

Turning to `COCc1nc2c(OC)ccc(CCc3ccncc3)c2[nH]1`, the melting point lay in the range of 154 to 156 °C.

For the compound `C=CCCC(F)c1cc(C2(c3ccc(OC(F)F)cc3)N=C(N)N(C)C2=O)ccc1F` (stereo not drawn), the melting point lay in the range of 50 to 55 °C.

For `CCOCCn1cc2c(C3C(=O)Nc4ccc(Br)cc43)nc(NCCN(C)C)nc2n1` (stereo not drawn), the melting point was in the range of 247 to 251 °C.

`O=CNC1=NN(c2ccc(Cl)c(Cl)c2)CC1` had a melting point of 151 to 153 °C.

Turning to `Nc1nc(Oc2c(Cl)cccc2Cl)nc2nc(-c3ccco3)nn12`, the melting point lay in the range of 270 to 272 °C.

In turn, `CN(C)NC(=O)c1nc([N+](=O)[O-])cn1C` gave a melting point of 154 °C.

`C[C@@H](NS(=O)(=O)c1ccc(Cl)cc1)[C@](O)(Cn1cncn1)c1ccc(Cl)cc1Cl` (relative stereo) registered a melting point of 160 to 165 °C.

With `CCn1c(C(O)(C2CCCCC2)C2CCCCC2)nc(-c2ccncc2)c1-c1ccc(Cl)cc1`, the melting point lay within 221 to 224 °C.

`COc1cc2ncnc(N3CCN(C(=S)Nc4ccc(C(F)(F)F)cc4)CC3)c2cc1OC` displayed a melting point of 117 to 119 °C.

Take `C=CCOC(=O)NC(C)(C)c1ccc(-c2nc(Nc3ccc(CCn4ccnc4)cc3)ncc2Cl)cc1F`: the melting point was 88 °C.

Compound `CCOc1ncccc1OCC1(c2onc(-c3ccc(O)cc3)c2-c2ccccc2)CC1` showed a melting point of 190 to 192 °C.

With `O=C(O)C(=O)Nc1ccccc1C(=O)NC1CCN(C2CCCCC2)C1` (stereo not drawn), the melting point is 268 to 270 °C.

In the case of `CN1CCN(CCn2c3ccccc3c(=NN=C3NCCS3)c3ccccc32)CC1`, the melting point fell in the range of 204 to 205 °C.

In turn, `COc1ccc(C2=NN(C3CCN(C(=O)CN4C(=O)COCC4=O)CC3)C(=O)C(C)(C)C2)cc1OC` showed a melting point of 210 to 211 °C.

The compound `CCCCCc1cc2c(nc(O)n2CCCNC(=O)NC2CCCCC2)c(N)n1` displayed a melting point of 202 to 204 °C.

`CC1(C)CC(c2ccc(Cl)cc2)=C(c2ccc(S(C)(=O)=O)cc2)C1` registered a melting point of 144 to 145 °C.

The compound `COC(=O)NC1Cc2ccc([N+](=O)[O-])cc2C1O` (stereo not drawn) yielded a melting point of 201 to 203 °C.

As to `CC(=O)c1ccc(Nc2nc(N)c(C(=O)c3ccccc3[N+](=O)[O-])s2)cc1`, the melting point was 264 to 265 °C.

For `CC(C)CCCC(C)C1CCC2C3CC=C4CCCC(O)C4(C)C3CCC12C` (stereo not drawn), the melting point was in the range of 102 to 103 °C.

Turning to `CC(C)C[C@H](N)C(=O)NCCCCNC(=O)c1ccccc1`, the melting point lay within 146 to 148 °C.

In turn, `CCCCOC(=O)c1cn(CC)c2nc(N3CCNCC3)c(F)cc2c1=O` came in with a melting point of 119 to 120 °C.

`CC1(C)CNS(=O)(=O)N1` yielded a melting point of 80 to 83 °C.

`COc1nc(N2CC(O)C2)c(Cl)nc1NS(=O)(=O)c1cccc(Cl)c1Cl`: the melting point lay in the range of 93 to 95 °C.

`Cc1nc2c(OCc3ccccc3)cc(CO)cc2n1C` came in with a melting point of 213 to 214 °C.

On to `O=C(O)c1[nH]c2ccc(Cl)cc2c1S(=O)(=O)c1nccs1`, for which the melting point was 260 to 261 °C.

For the compound `CCCCc1nc(SC)c(C(=O)O)n1Cc1ccc(-c2ccccc2S(=O)(=O)NC(=O)NCCC)cc1`, the melting point was 109 to 111 °C.

Compound `Nc1nc(N)c2cc(Cc3ccc(F)cc3)ccc2n1` had a melting point of 214 to 216 °C.

Compound `COc1cc(Cl)nc(NC(=O)NS(=O)(=O)c2ccccc2-c2nnnn2C)n1` registered a melting point of 225 to 227 °C.

With `CC(CCO)N1CCC(Cc2ccccc2)CC1` (stereo not drawn), the melting point lay within 74 to 76 °C.

In turn, `O=S1(=O)N=C(NCCCOc2cccc(CN3CCCCC3)c2)c2ccc(F)cc21` yielded a melting point of 139 to 163 °C.

For the compound `COC(=O)OC1=C(c2cc(C)ccc2C)C(=O)NC12CCN(OC)CC2`, the melting point lay within 186 to 188 °C.

Compound `COc1cc(C(=O)CBr)cc(Cl)c1OC` came in with a melting point of 76.5 to 78 °C.

Consider `CC(=O)N1CCN(c2ccc([N+](=O)[O-])c(C)c2)CC1`, for which the melting point is 133 to 137 °C.

In turn, `CC(C)(C)OC(=O)COC1CCN(C(=O)CC(=O)Nc2ccc(C(N)=NO)cc2)CC1` showed a melting point of 161 to 163 °C.

In turn, `COc1ccc(C)cc1NC(=O)Nc1ccc(N2CCN(C(=O)Nc3ccc(C(O)CO)cc3C)CC2)cc1` (stereo not drawn) displayed a melting point of 112 to 113 °C.

`CCCc1c(OCCCOc2cccc3ccccc23)ccc2c1OC(CCC(=O)O)(CCC(=O)O)CC2=O` came in with a melting point of 164 to 167 °C.

In turn, `O=C(O)CC(NC(=O)c1ccc2c(c1)CCC(=NNC1=NCCN1)C1=C2CCC1)c1cccnc1` (stereo not drawn) yielded a melting point of 126 to 128 °C.

For the compound `CCc1cc(N)ccc1N1C(=O)c2ccc(Cl)cc2C1=O`, the melting point is 118 to 120 °C.

Regarding `COc1cccc2c1CC(C(=O)O)N2C(=O)OC(C)(C)C` (stereo not drawn), the melting point was 148 to 150 °C.

With `NC(=O)C1CCN(c2c(Br)cncc2Br)CC1`, the melting point is 158 to 160 °C.

As for `CC(C)(C)OC(=O)NCCc1ccnc(C#N)c1`, the melting point lay in the range of 70.5 to 71.2 °C.

As to `CCOC(=O)c1cn2c3c(c(F)c(F)c(F)c3c1=O)C(C(=O)OC(C)(C)C)(C(=O)OC(C)(C)C)CN2C`, the melting point was 169 to 173 °C.

For the compound `CCCc1nc(C=O)c(C)[nH]1`, the melting point lay in the range of 126 to 129 °C.

In the case of `CC(C)OC(=O)c1cc(-n2c(=O)[nH]c3c(c2=O)CCO3)c(F)cc1Cl`, the melting point lay within 213 to 215 °C.

As for `CC(C)(CC(F)(F)F)NC(=N)NC#N`, the melting point came out at 153 °C.

`O=S1(=O)c2ccccc2-c2ccc(F)cc21` showed a melting point of 229 to 233 °C.

On to `CC(C)Cc1nn(C)c(=O)c2cc(Cc3c(F)cccc3Cl)sc12`, for which the melting point fell in the range of 85 to 86 °C.

`O=c1[nH]c2ccc(C3=NOC(CN4CCC(c5ccc(F)cc5)CC4)C3)cc2o1` (stereo not drawn): the melting point lay within 214 to 217 °C.

`CC(=O)Nc1ccc(CC2CCN(CCS(=O)c3ccc4[nH]c(=O)oc4c3)CC2)cc1` (stereo not drawn) returned a melting point of 104 to 105 °C.

As for `FC(F)(F)c1ccc(Oc2ccc3nnsc3c2)c(Cl)c1`, the melting point is 72 to 73 °C.

Compound `Fc1ccc(F)c(CN2CCNc3ncc(-c4cn[nH]c4)cc32)c1Cl` displayed a melting point of 272 °C.

`CCCCCCNc1ncnc(N(C)C)c1N` came in with a melting point of 123 to 125 °C.

The compound `O=C(c1ccccc1)c1cnc2c(c1)CCC(c1ccc(Cl)c(Cl)c1)O2` (stereo not drawn) showed a melting point of 155 to 158 °C.

On to `COC1(OC)C2(Cl)C(Cl)=C(Cl)C1(Cl)C1OC(=O)OC12` (stereo not drawn), for which the melting point lay within 160 to 162 °C.

`O=C(O)C(ON=c1c2nccc3cccc(c32)n2cccc12)c1ccccc1` (stereo not drawn) showed a melting point of 200 °C.

For `CN1CCc2ccccc21`, the melting point fell in the range of 88 to 90 °C.

With `CCCC(=O)c1cc2c(cc1C)NC(=O)C2(O)C(=O)OCC` (stereo not drawn), the melting point fell in the range of 180 to 181 °C.

`CC1CN(c2ccncc2Oc2ccccc2)CCN1` (stereo not drawn) displayed a melting point of 55 to 57 °C.

`Cc1cccc(CSc2c(O)cc(-c3ccccc3)oc2=O)c1`: the melting point was in the range of 139 to 140 °C.

Turning to `O=C(NC1CCn2c(CCc3ccccc3)nc3cccc1c32)c1ccccn1` (stereo not drawn), the melting point came to 173 °C.

Compound `CCOC(=O)CC(=O)c1ccncn1` came in with a melting point of 52.3 °C.

Compound `N#Cc1ccc(CCCCCO)cc1` came in with a melting point of 39 to 41 °C.

`COC(=O)c1ccc(Oc2c(-c3ccc(OCc4ccccc4)cc3)c(C(F)(F)F)cc3ccccc23)cc1` displayed a melting point of 131 to 132 °C.

The compound `CC(=O)OC1CC(C)(C)C(OC(=O)c2ccccc2)C(O)C=C1C` (stereo not drawn) gave a melting point of 113 to 114 °C.

For `COC(=O)CC=Cc1c(C(C)C)cc(C(C)C)cc1C(C)C`, the melting point was in the range of 61 to 63 °C.

The compound `N#Cc1ccc(OCCCCOc2cccc(-c3cc4cc(C#N)ccc4o3)c2)cc1` showed a melting point of 130 to 132 °C.

Regarding `COC(=O)C1=C(C)NC(C#N)=C(C(=O)OC)C1c1ccccc1[N+](=O)[O-]` (stereo not drawn), the melting point lay within 170 to 172 °C.

Take `CC(C)(O)C(=O)c1ccc(C(O)c2ccc(C(=O)C3(O)CCCCC3)cc2)cc1` (stereo not drawn): the melting point is 115 to 118 °C.

As to `O=C(OCC(Cl)(Cl)Cl)n1ccnc1`, the melting point was 80 °C.

`CCOC(=O)C1=C(C)NC(OC)=NC1c1cccc([N+](=O)[O-])c1` (stereo not drawn) yielded a melting point of 101 to 103 °C.

Consider `CCCCOc1ncc(C(C)=O)cc1-c1nn2c(CC)nc(CCC)c2c(=O)[nH]1`, for which the melting point is 155 to 156 °C.

Turning to `COc1ccc2c(c1)C(C(=O)O)=Cc1ccccc1O2`, the melting point amounted to 150 °C.

What is called melting point is the temperature, or range, at which the solid turns liquid.
